From US11702404B2, “GLP-1R modulating compounds” (priority 2019, dated 2023)

Key:
GLP-1R = GLP-1R (Homo sapiens, UniProt P43220); experiment: GLP-1R activation: cAMP increase in CHO cells stably expressing GLP-1R; assay type: cell-based; settings: cAMP increase, CHO cells stably expressing GLP-1R, 10 point dose response, 30 minutes incubation; read-out: EC50
[1] = Microsomal stability, human liver microsomes (predicted hepatic clearance); settings: predicted from in vitro microsomal stability data

Chain of GLP-1R (P43220 24-463): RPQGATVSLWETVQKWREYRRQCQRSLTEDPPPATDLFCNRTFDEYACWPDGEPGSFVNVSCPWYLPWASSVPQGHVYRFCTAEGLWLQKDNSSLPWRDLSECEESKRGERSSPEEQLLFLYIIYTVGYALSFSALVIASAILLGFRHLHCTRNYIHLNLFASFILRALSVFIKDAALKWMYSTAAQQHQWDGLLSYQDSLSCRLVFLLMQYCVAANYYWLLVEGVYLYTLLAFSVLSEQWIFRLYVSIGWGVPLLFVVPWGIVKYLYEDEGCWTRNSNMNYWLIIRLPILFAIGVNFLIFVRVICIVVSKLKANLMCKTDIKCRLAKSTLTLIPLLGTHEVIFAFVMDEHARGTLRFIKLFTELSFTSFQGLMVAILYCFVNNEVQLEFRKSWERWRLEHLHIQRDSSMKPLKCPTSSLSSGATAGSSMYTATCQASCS

Structure (SMILES)	EC50 (GLP-1R)	Predicted Hepatic Clearance (Pred. Cl.) [1]
COCCn1c(Cc2ccc(-c3nc(OCc4ccc(C#N)cc4F)ns3)cc2F)nc2ccc(C(=O)O)cc21 [Example 62, 2-(4-(3-((4-cyano-2-fluorobenzyl)oxy)-1,2,4-thiadiazol-5-yl)-2-fluorobenzyl)-1-(2-methoxyethyl)-1H-benzo[d]imidazole-6-carboxylic acid]	1430 nM	6.7 mL/min/kg
COCCn1c(Cc2ccc(-c3nsc(OCc4ccc(C#N)cc4F)n3)cc2F)nc2ccc(C(=O)O)cc21 [Example 63, 2-{[4-[5-[(4-cyano-2-fluoro-phenyl)methoxy]-1,2,4-thiadiazol-3-yl]-2-fluoro-phenyl]methyl}-3-(2-methoxyethyl)benzimidazole-5-carboxylic acid]	164 nM	<1.83 mL/min/kg
COCCn1c(Cc2ccc(-c3cccc(OCc4ccc(C#N)cc4F)n3)cc2N)nc2ccc(C(=O)O)cc21 [Example 64, 2-(2-amino-4-(6-((4-cyano-2-fluorobenzyl)oxy)pyridin-2-yl)benzyl)-1-(2-methoxyethyl)-1H-benzo[d]imidazole-6-carboxylic acid]	67 nM	3.5 mL/min/kg
COCCn1c(Cc2ccc(-c3cccc(OCc4ccc(C#N)cc4F)n3)cc2NC(C)=O)nc2ccc(C(=O)O)cc21 [Example 65, 2-(2-Acetamido-4-(6-((4-cyano-2-fluorobenzyl)oxy)pyridin-2-yl)benzyl)-1-(2-methoxyethyl)-1H-benzo[d]imidazole-6-carboxylic acid]	1230 nM	7.17 mL/min/kg
COCCn1c(Cc2ccc(-c3cccc(OCc4ccc(C#N)cc4F)n3)cc2NS(C)(=O)=O)nc2ccc(C(=O)O)cc21 [Example 66, 2-(4-(6-((4-Cyano-2-fluorobenzyl)oxy)pyridin-2-yl)-2-(methylsulfonamido)benzyl)-1-(2-methoxyethyl)-1H-benzo[d]imidazole-6-carboxylic acid]	1030 nM	12.3 mL/min/kg
COCCn1c(Cc2ccc(-c3conc3OCc3ccc(C#N)cc3F)cc2F)nc2ccc(C(=O)O)cc21 [Example 80, 2-(4-(3-((4-cyano-2-fluorobenzyl)oxy)isoxazol-4-yl)-2-fluorobenzyl)-1-(2-methoxyethyl)-1H-benzo[d]imidazole-6-carboxylic acid]	2630 nM	5.17 mL/min/kg
COCCn1c(Cc2ccc(-c3nc(OCc4ccc(C#N)cc4F)ccc3C#N)cc2F)nc2ccc(C(=O)O)cc21 [Example 81, 2-(4-(3-cyano-6-((4-cyano-2-fluorobenzyl)oxy)pyridin-2-yl)-2-fluorobenzyl)-1-(2-methoxyethyl)-1H-benzo[d]imidazole-6-carboxylic acid]	291 nM	10.7 mL/min/kg
COCCn1c(Cc2ccc(-c3ccc(N)c(OCc4ccc(C#N)cc4F)c3)cc2F)nc2ccc(C(=O)O)cc21 [Example 82, 2-((4′-amino-3′-((4-cyano-2-fluorobenzyl)oxy)-3-fluoro-[1,1′-biphenyl]-4-yl)methyl)-1-(2-methoxyethyl)-1H-benzo[d]imidazole-6-carboxylic acid]	264 nM	3.67 mL/min/kg
COCCn1c(Cc2ccc(-c3ccc(C#N)c(OCc4ccc(C#N)cc4F)n3)cc2F)nc2ccc(C(=O)O)cc21 [Example 86, 2-(4-(5-cyano-6-((4-cyano-2-fluorobenzyl)oxy)pyridin-2-yl)-2-fluorobenzyl)-1-(2-methoxyethyl)-1H-benzo[d]imidazole-6-carboxylic acid]	274 nM	<1.83 mL/min/kg
COCCn1c(Cc2ccc(-c3csnc3OCc3ccc(C#N)cc3F)cc2F)nc2ccc(C(=O)O)cc21 [Example 88, 2-(4-(3-((4-cyano-2-fluorobenzyl)oxy)isothiazol-4-yl)-2-fluorobenzyl)-1-(2-methoxyethyl)-1H-benzo[d]imidazole-6-carboxylic acid]	296 nM	8.5 mL/min/kg
COCCn1c(Cc2ccc(-n3ccc(OCc4ccccc4)n3)cc2F)nc2ccc(C(=O)O)cc21 [Example 89, 2-(4-(3-(benzyloxy)-1H-pyrazol-1-yl)-2-fluorobenzyl)-1-(2-methoxyethyl)-1H-benzo[d]imidazole-6-carboxylic acid]	1650 nM	8.83 mL/min/kg

Compounds with a lower EC50 (GLP-1R), results first:

EC50 (GLP-1R)	Predicted Hepatic Clearance (Pred. Cl.) [1]	Structure (SMILES)
54.3 nM	6.33 mL/min/kg	COCCn1c(Cc2ccc(-c3nc(OCc4ccc(C#N)cc4F)cs3)cc2F)nc2ccc(C(=O)O)cc21 [Example 84, 2-(4-(4-((4-cyano-2-fluorobenzyl)oxy)thiazol-2-yl)-2-fluorobenzyl)-1-(2-methoxyethyl)-1H-benzo[d]imidazole-6-carboxylic acid]
30 nM	<1.83 mL/min/kg	COCCn1c(Cc2ncc(-c3cccc(OCc4ccc(C#N)cc4F)n3)cc2F)nc2ccc(C(=O)O)cc21 [Example 60, 2-{[5-[6-[(4-cyano-2-fluoro-phenyl)methoxy]-2-pyridyl]-3-fluoro-2-pyridyl]methyl}-3-(2-methoxyethyl)benzimidazole-5-carboxylic acid]
29.3 nM	<1.83 mL/min/kg	COCCn1c(Cc2ccc(-c3ccnc(OCc4ccc(C#N)cc4F)n3)cc2F)nc2ccc(C(=O)O)cc21 [Example 83, 2-(4-(2-((4-cyano-2-fluorobenzyl)oxy)pyrimidin-4-yl)-2-fluorobenzyl)-1-(2-methoxyethyl)-1H-benzo[d]imidazole-6-carboxylic acid]
23.8 nM	12.3 mL/min/kg	COCCn1c(Cc2c(F)cc(-c3csnc3OCc3ccc(Cl)cc3F)cc2F)nc2ccc(C(=O)O)cc21 [Example 72, 2-(4-(3-((4-chloro-2-fluorobenzyl)oxy)isothiazol-4-yl)-2,6-difluorobenzyl)-1-(2-methoxyethyl)-1H-benzo[d]imidazole-6-carboxylic acid]
22.3 nM	13.4 mL/min/kg	COCCn1c(Cc2c(F)cc(-c3csnc3OCc3ccc(C#N)cc3F)cc2F)nc2ccc(C(=O)O)cc21 [Example 76, 2-(4-(3-((4-cyano-2-fluorobenzyl)oxy)isothiazol-4-yl)-2,6-difluorobenzyl)-1-(2-methoxyethyl)-1H-benzo[d]imidazole-6-carboxylic acid]
18 nM	<1.83 mL/min/kg	COCCn1c(Cn2ccc(-c3cccc(OCc4ccc(C#N)cc4F)n3)cc2=O)nc2ccc(C(=O)O)cc21 [Example 61, 2-((6-((4-cyano-2-fluorobenzyl)oxy)-2′-oxo-[2,4′-bipyridin]-1′(2′H)-yl)methyl)-1-(2-methoxyethyl)-1H-benzo[d]imidazole-6-carboxylic acid]
6.13 nM	4.5 mL/min/kg	COCCn1c(Cc2ccc(-c3nc(OCc4ccc(C#N)cc4F)c(F)cc3F)cc2F)nc2ccc(C(=O)O)cc21 [Example 73, 2-(4-(6-((4-cyano-2-fluorobenzyl)oxy)-3,5-difluoropyridin-2-yl)-2-fluorobenzyl)-1-(2-methoxyethyl)-1H-benzo[d]imidazole-6-carboxylic acid]
5.66 nM	<1.83 mL/min/kg	COCCn1c(Cc2ccc(-c3ccc(F)c(OCc4ccc(C#N)cc4F)n3)cc2F)nc2ccc(C(=O)O)cc21 [Example 87, 2-(4-(6-((4-cyano-2-fluorobenzyl)oxy)-5-fluoropyridin-2-yl)-2-fluorobenzyl)-1-(2-methoxyethyl)-1H-benzo[d]imidazole-6-carboxylic acid]
4.9 nM	3.67 mL/min/kg	COCCn1c(Cc2ccc(-c3cc(C#N)cc(OCc4ccc(C#N)cc4F)n3)cc2F)nc2ccc(C(=O)O)cc21 [Example 85, 2-(4-(4-cyano-6-((4-cyano-2-fluorobenzyl)oxy)pyridin-2-yl)-2-fluorobenzyl)-1-(2-methoxyethyl)-1H-benzo[d]imidazole-6-carboxylic acid]
1.34 nM	<1.83 mL/min/kg	COCCn1c(Cc2ccc(-c3cccc(OCc4ccc(C#N)cc4F)n3)cc2F)nc2ncc(C(=O)O)cc21 [Example 71, 2-(4-(6-((4-cyano-2-fluorobenzyl)oxy)pyridin-2-yl)-2-fluorobenzyl)-1-(2-methoxyethyl)-1H-imidazo[4,5-b]pyridine-6-carboxylic]
1.04 nM	8.83 mL/min/kg	N#CCC1(Cn2c(Cc3ccc(-c4ccnc(OCc5ccc(Cl)cc5F)n4)cc3F)nc3ccc(C(=O)O)cc32)CC1 [Example 79, 2-(4-(2-((4-chloro-2-fluorobenzyl)oxy)pyrimidin-4-yl)-2-fluorobenzyl)-1-((1-(cyanomethyl)cyclopropyl)methyl)-1H-benzo[d]imidazole-6-carboxylic acid]
0.6 nM	13.8 mL/min/kg	COc1cc(Cl)ccc1COc1nccc(-c2ccc(Cc3nc4ccc(C(=O)O)cc4n3CC3(CF)CC3)cc2F)n1 [Example 75, 2-(4-(2-((4-chloro-2-methoxybenzyl)oxy)pyrimidin-4-yl)-3-fluorobenzyl)-1-((1-(fluoromethyl)cyclopropyl)methyl)-1H-benzo[d]imidazole-6-carboxylic acid]
0.46 nM	13.2 mL/min/kg	COc1cc(Cl)ccc1COc1cccc(-c2ccc(Cc3nc4ccc(C(=O)O)cc4n3CC3(CC#N)CC3)cc2F)n1 [Example 74, 2-(4-(6-((4-chloro-2-methoxybenzyl)oxy)pyridin-2-yl)-3-fluorobenzyl)-1-((1-(cyanomethyl)cyclopropyl)methyl)-1H-benzo[d]imidazole-6-carboxylic acid]
0.19 nM	9.17 mL/min/kg	COCCn1c(Cc2ccc(-c3cc(F)cc(OCc4ccc(C#N)cc4OC)n3)cc2F)nc2ccc(C(=O)O)cc21 [Example 77, 2-(4-(6-((4-cyano-2-methoxybenzyl)oxy)-4-fluoropyridin-2-yl)-2-fluorobenzyl)-1-(2-methoxyethyl)-1H-benzo[d]imidazole-6-carboxylic]
